Experimental data published in publication PMC4685510, “A Cell Biologist’s Field Guide to Aurora Kinase Inhibitors” (Frontiers in Oncology, 2015).

How the values were obtained:
RPE1 cells = assay: Cytokinesis assay (live imaging, YFP-α-tubulin; H2B-RFP), RPE1; type: cell-based; conditions: Homo sapiens, RPE-1; RPE1; cytokinesis failure; read-out: Cytokinesis IC50
U2OS cells = assay: Cytokinesis assay (live imaging, YFP-α-tubulin; H2B-RFP), U2OS; type: cell-based; conditions: Homo sapiens, cytokinesis failure, read-out: Cytokinesis IC50
HeLa cells = assay: Cytokinesis assay (live imaging, YFP-α-tubulin; H2B-RFP), HeLa; type: cell-based, human; conditions: Homo sapiens; HeLa; cytokinesis failure; read-out: Cytokinesis IC50
[1] = biological target: 363 human kinases (including Aurora A/B/C) (Homo sapiens, UniProt Q16584); assay: biochemical; type: biochemical; conditions: MLK3/MAP3K11, 500 nM
From the text: However, the Aurora A/B selectivity ratios derived from our in vitro and in vivo data can be compared to prioritize inhibitors.

[2] = biological target: T1, full-length human Aurora A (Homo sapiens, UniProt O14965); assay: Aurora A kinase assay (ADP-Glo, Kemptide substrate)
T1 sequence (O14965 1-403): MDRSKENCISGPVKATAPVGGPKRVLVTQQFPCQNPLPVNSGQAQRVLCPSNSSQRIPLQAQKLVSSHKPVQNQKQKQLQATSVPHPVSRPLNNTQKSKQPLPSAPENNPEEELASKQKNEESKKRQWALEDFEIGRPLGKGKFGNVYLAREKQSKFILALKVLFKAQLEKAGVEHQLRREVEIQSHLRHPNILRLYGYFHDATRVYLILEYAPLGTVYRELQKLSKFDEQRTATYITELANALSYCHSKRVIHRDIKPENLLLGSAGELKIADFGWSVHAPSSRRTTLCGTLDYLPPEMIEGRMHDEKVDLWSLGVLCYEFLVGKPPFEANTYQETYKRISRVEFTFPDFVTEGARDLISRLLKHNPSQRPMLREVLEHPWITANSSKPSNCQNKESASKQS

Aurora A/TPX2^1–43 = biological target: T2, Aurora A/TPX2^1–43 (Homo sapiens, UniProt O14965); assay: Aurora A/TPX2^1–43 kinase assay (ADP-Glo)
T2 sequence (O14965 1-403): T1 sequence (O14965 1-403)
T2 sequence (Q9ULW0 1-43 partner limits assumed): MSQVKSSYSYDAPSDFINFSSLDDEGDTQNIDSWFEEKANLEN

[3] = fold difference in potency calculated by dividing Ki values

Chain of 363 human kinases (including Aurora A/B/C) (Q16584 whole entry): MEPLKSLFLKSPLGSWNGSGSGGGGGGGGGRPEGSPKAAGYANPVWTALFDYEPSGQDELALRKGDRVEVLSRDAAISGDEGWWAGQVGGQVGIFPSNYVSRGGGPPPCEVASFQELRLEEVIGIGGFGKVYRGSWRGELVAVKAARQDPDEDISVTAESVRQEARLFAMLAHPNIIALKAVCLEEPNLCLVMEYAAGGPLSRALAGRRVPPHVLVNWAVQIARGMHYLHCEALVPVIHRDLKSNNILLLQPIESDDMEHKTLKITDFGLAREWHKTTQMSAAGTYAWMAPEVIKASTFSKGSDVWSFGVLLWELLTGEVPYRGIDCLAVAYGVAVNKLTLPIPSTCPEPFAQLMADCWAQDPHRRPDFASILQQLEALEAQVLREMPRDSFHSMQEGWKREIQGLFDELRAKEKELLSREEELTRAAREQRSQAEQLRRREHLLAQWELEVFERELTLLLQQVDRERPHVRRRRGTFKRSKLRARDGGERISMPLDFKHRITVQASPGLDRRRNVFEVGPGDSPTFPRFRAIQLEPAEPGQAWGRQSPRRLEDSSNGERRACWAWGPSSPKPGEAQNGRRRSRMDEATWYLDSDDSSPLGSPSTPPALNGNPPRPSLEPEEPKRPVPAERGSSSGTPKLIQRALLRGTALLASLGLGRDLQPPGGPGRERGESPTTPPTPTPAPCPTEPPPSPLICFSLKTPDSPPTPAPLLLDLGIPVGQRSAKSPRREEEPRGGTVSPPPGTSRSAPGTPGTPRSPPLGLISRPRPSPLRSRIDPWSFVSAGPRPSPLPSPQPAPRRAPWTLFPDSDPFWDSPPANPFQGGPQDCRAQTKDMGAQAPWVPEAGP

| Structure (SMILES) | IC50 (RPE1 cells) [nM] | IC50 (U2OS cells) [nM] | IC50 (HeLa cells) [nM] | % Enzyme Activity (relative to DMSO controls) [1] [%] | remaining activity at 0.5 µM ([1]; read-out: % Enzyme Activity (relative to DMSO controls)) [%] | IC50 [2] [nM] | Ki ([2]; Aurora A Ki Mean ± SD, [ATP] = Km(ATP) (35 μM), Ki calculated from IC50 with tight-binding equation) [nM] | Selectivity ratio Aur A versus Aur A-TPX2^1–43 [2, 3] [fold] | Selectivity ratio Aur A versus Aur B-INCENP^783–918 [2, 3] [fold] | IC50 (Aurora A/TPX2^1–43) [nM] | Ki (Aurora A/TPX2^1–43; Aurora A TPX2^1-43 Ki (example dataset, Figure 2D), calculated from the example IC50) [nM] | Ki (Aurora A/TPX2^1–43; Aurora A-TPX2^1–43 Ki Mean ± SD, [ATP] = Km(ATP) (3 μM), 40 nM TPX2^1–43) [nM] | Selectivity ratio Aur A-TPX2^1–43 versus Aur B-INCENP^783–918 (Aurora A/TPX2^1–43; [3]) [fold] |
| --- | --- | --- | --- | --- | --- | --- | --- | --- | --- | --- | --- | --- | --- |
| CCn1cc(-c2ccnc3[nH]c(-c4cccc(CN(C)C)c4)cc23)c(-c2ccc(NC(=O)N(C)C)cc2)n1 [GSK1070916] | 21 | 6 | 6 | – | – | – | – | – | – | – | – | – | – |
| O=C(c1cccc(Cl)c1F)N1CCN(Cc2cccc(Nc3nccs3)n2)CC1 [MK-8745] | – | – | – | 92.79 | 94.8 | 0.23 | 0.06 ± 0.004 | 6.3 | 1030 | 0.83 | 0.36 | 0.41 ± 0.06 | 162 |
